What was measured:
UACC-62 = experiment: NCI-60 SRB screen; format: cell-based, human; conditions: Homo sapiens; single dose 10^−5 M; UACC-62, Melanoma; read-out: Growth inhibition (%)
SR = experiment: NCI-60 SRB screen; format: cell-based; conditions: Homo sapiens, single dose 10^−5 M, Leukaemia, read-out: Growth inhibition (%)
MOLT-4 = experiment: NCI-60 SRB screen; format: cell-based; conditions: Homo sapiens; single dose 10^−5 M; MOLT-4, Leukaemia; read-out: Growth inhibition (%)
MALME-3M = experiment: NCI-60 SRB screen; format: cell-based, human; conditions: Homo sapiens, single dose 10^−5 M, Melanoma, read-out: Growth inhibition (%)
HL-60(TB) = experiment: NCI-60 SRB screen; format: cell-based, human; conditions: Homo sapiens; single dose 10^−5 M; HL-60(TB), Leukaemia; read-out: Growth inhibition (%)
786-0 = experiment: NCI-60 SRB screen; format: cell-based; conditions: Homo sapiens; single dose 10^−5 M; 786-0, Renal cancer; read-out: Growth inhibition (%)
NCI-H460 = experiment: NCI-60 SRB screen; format: cell-based, human; conditions: Homo sapiens; single dose 10^−5 M; NCI-H460, Non-small cell lung carcinoma; read-out: Growth inhibition (%)
SK-MEL-28 = experiment: NCI-60 SRB screen; format: cell-based; conditions: Homo sapiens; single dose 10^−5 M; SK-MEL-28, Melanoma; read-out: Growth inhibition (%)
RXF 393 = experiment: NCI-60 SRB screen; format: cell-based, human; conditions: Homo sapiens; single dose 10^−5 M; RXF 393, Renal cancer; read-out: Growth inhibition (%)
HCT-116 = experiment: NCI-60 SRB screen; format: cell-based, human; conditions: Homo sapiens; single dose 10^−5 M; HCT-116, Colon cancer; read-out: Growth inhibition (%)
KM12 = experiment: NCI-60 SRB screen; format: cell-based, human; conditions: Homo sapiens; single dose 10^−5 M; KM12, Colon cancer; read-out: Growth inhibition (%)
[1] = system: panel of 60 cancer cell lines; experiment: NCI-60 SRB screen, mean or range over the panel; format: cell-based, human; conditions: Homo sapiens; mean over the cell lines; single dose 10^−5 M; read-out: Mean growth inhibition (%)
SF-268 = experiment: NCI-60 SRB screen; format: cell-based, human; conditions: Homo sapiens; single dose 10^−5 M; SF-268, CNS cancer; read-out: Growth inhibition (%)
SK-OV-3 = experiment: NCI-60 SRB screen; format: cell-based, human; conditions: Homo sapiens; single dose 10^−5 M; SK-OV-3, Ovarian cancer; read-out: Growth inhibition (%)
NCI/ADR-RES = experiment: NCI-60 SRB screen; format: cell-based, human; conditions: Homo sapiens, single dose 10^−5 M, Ovarian cancer, read-out: Growth inhibition (%)
LOX IMVI = experiment: NCI-60 SRB screen; format: cell-based, human; conditions: Homo sapiens, single dose 10^−5 M, Melanoma, read-out: Growth inhibition (%)
HCC-2998 = experiment: NCI-60 SRB screen; format: cell-based, human; conditions: Homo sapiens; single dose 10^−5 M; HCC-2998, Colon cancer; read-out: Growth inhibition (%)
NCI-H322M = experiment: NCI-60 SRB screen; format: cell-based, human; conditions: Homo sapiens, single dose 10^−5 M, Non-small cell lung carcinoma, read-out: Growth inhibition (%)
M14 = experiment: NCI-60 SRB screen; format: cell-based, human; conditions: Homo sapiens; single dose 10^−5 M; M14, Melanoma; read-out: Growth inhibition (%)
OVCAR-3 = experiment: NCI-60 SRB screen; format: cell-based, human; conditions: Homo sapiens; single dose 10^−5 M; OVCAR-3, Ovarian cancer; read-out: Growth inhibition (%)
EKVX = experiment: NCI-60 SRB screen; format: cell-based, human; conditions: Homo sapiens, single dose 10^−5 M, Non-small cell lung carcinoma, read-out: Growth inhibition (%)
OVCAR-4 = experiment: NCI-60 SRB screen; format: cell-based, human; conditions: Homo sapiens; single dose 10^−5 M; OVCAR-4, Ovarian cancer; read-out: Growth inhibition (%)
NCI-H23 = experiment: NCI-60 SRB screen; format: cell-based, human; conditions: Homo sapiens; single dose 10^−5 M; NCI-H23, Non-small cell lung carcinoma; read-out: Growth inhibition (%)
UO-31 = experiment: NCI-60 SRB screen; format: cell-based, human; conditions: Homo sapiens; single dose 10^−5 M; UO-31, Renal cancer; read-out: Growth inhibition (%)
IGROV1 = experiment: NCI-60 SRB screen; format: cell-based, human; conditions: Homo sapiens, IGROV-1; single dose 10^−5 M; IGROV1, Ovarian cancer; read-out: Growth inhibition (%)
SK-MEL-2 = experiment: NCI-60 SRB screen; format: cell-based, human; conditions: Homo sapiens; single dose 10^−5 M; SK-MEL-2, Melanoma; read-out: Growth inhibition (%)
CCRF-CEM = experiment: NCI-60 SRB screen; format: cell-based; conditions: Homo sapiens, single dose 10^−5 M, Leukaemia, read-out: Growth inhibition (%)
OVCAR-8 = experiment: NCI-60 SRB screen; format: cell-based, human; conditions: Homo sapiens; single dose 10^−5 M; OVCAR-8, Ovarian cancer; read-out: Growth inhibition (%)
HCT-15 = experiment: NCI-60 SRB screen; format: cell-based, human; conditions: Homo sapiens; single dose 10^−5 M; HCT-15, Colon cancer; read-out: Growth inhibition (%)
HT-29 = experiment: NCI-60 SRB screen; format: cell-based; conditions: Homo sapiens; single dose 10^−5 M; HT-29, Colon cancer; read-out: Growth inhibition (%)
SK-MEL-5 = experiment: NCI-60 SRB screen; format: cell-based, human; conditions: Homo sapiens; single dose 10^−5 M; SK-MEL-5, Melanoma; read-out: Growth inhibition (%)
A549/ATCC = experiment: NCI-60 SRB screen; format: cell-based, human; conditions: Homo sapiens, single dose 10^−5 M, Non-small cell lung carcinoma, read-out: Growth inhibition (%)
COLO 205 = experiment: NCI-60 SRB screen; format: cell-based, human; conditions: Homo sapiens; single dose 10^−5 M; COLO 205, Colon cancer; read-out: Growth inhibition (%)
SN12C = experiment: NCI-60 SRB screen; format: cell-based, human; conditions: Homo sapiens, SN12C; single dose 10^−5 M; SN 12 C, Renal cancer; read-out: Growth inhibition (%)
ACHN = experiment: NCI-60 SRB screen; format: cell-based; conditions: Homo sapiens, single dose 10^−5 M, Renal cancer, read-out: Growth inhibition (%)
HOP-62 = experiment: NCI-60 SRB screen; format: cell-based, human; conditions: Homo sapiens; single dose 10^−5 M; HOP-62, Non-small cell lung carcinoma; read-out: Growth inhibition (%)
UACC-257 = experiment: NCI-60 SRB screen; format: cell-based, human; conditions: Homo sapiens; single dose 10^−5 M; UACC-257, Melanoma; read-out: Growth inhibition (%)
NCI-H522 = experiment: NCI-60 SRB screen; format: cell-based, human; conditions: Homo sapiens; single dose 10^−5 M; NCI-H522, Non-small cell lung carcinoma; read-out: Growth inhibition (%)
SF-295 = experiment: NCI-60 SRB screen; format: cell-based, human; conditions: Homo sapiens; single dose 10^−5 M; SF-295, CNS cancer; read-out: Growth inhibition (%)
NCI-H226 = experiment: NCI-60 SRB screen; format: cell-based, human; conditions: Homo sapiens; single dose 10^−5 M; NCI-H226, Non-small cell lung carcinoma; read-out: Growth inhibition (%)
TK-10 = experiment: NCI-60 SRB screen; format: cell-based, human; conditions: Homo sapiens; single dose 10^−5 M; TK-10, Renal cancer; read-out: Growth inhibition (%)
SW-620 = experiment: NCI-60 SRB screen; format: cell-based; conditions: Homo sapiens; single dose 10^−5 M; SW-620, Colon cancer; read-out: Growth inhibition (%)
MDA-MB-435 = experiment: NCI-60 SRB screen; format: cell-based; conditions: Homo sapiens, MDA-MB-435, read-out: Growth inhibition (%)
K-562 = experiment: NCI-60 SRB screen; format: cell-based, human; conditions: Homo sapiens, K562; single dose 10^−5 M; K-562, Leukaemia; read-out: Growth inhibition (%)

SMILES: N#CC1=C(N2CCCCC2)NC(c2cccc([N+](=O)[O-])c2)c2sc3c(F)cccc3c21 (centres unmarked) [Compound 8f, 4-Cyano-3-(piperidin-1-yl)-8-fluoro-1-(3-nitrophenyl)-1,2-dihydro [1]benzothieno[2,3-c]pyridine]
- inhibition at 10 µM (UACC-62): 15.5%
- inhibition at 10 µM (SR): 11.1%
- inhibition at 10 µM (MOLT-4): 5.31%
- inhibition at 10 µM (MALME-3M): -10.6%
- inhibition at 10 µM (HL-60(TB)): -3.35%
- inhibition at 10 µM (786-0): -12.1%
- inhibition at 10 µM (NCI-H460): 2.2%
- inhibition at 10 µM (SK-MEL-28): -10.7%
- inhibition at 10 µM (RXF 393): -6.31%
- inhibition at 10 µM (HCT-116): 4.5%
- inhibition at 10 µM (KM12): 5.13%
- inhibition at 10 µM [1]: 0.008%
- inhibition at 10 µM (SF-268): 9.44%
- inhibition at 10 µM (SK-OV-3): 7.22%
- inhibition at 10 µM (NCI/ADR-RES): -1.61%
- inhibition at 10 µM (LOX IMVI): 2.61%
- inhibition at 10 µM (HCC-2998): -23.2%
- inhibition at 10 µM (NCI-H322M): -5.64%
- inhibition at 10 µM (M14): 0.58%
- inhibition at 10 µM (OVCAR-3): 0.09%
- inhibition at 10 µM (EKVX): 5.51%
- inhibition at 10 µM (OVCAR-4): 0.9%
- inhibition at 10 µM (NCI-H23): 4.09%
- inhibition at 10 µM (UO-31): 33.3%
- inhibition at 10 µM (IGROV1): 14.9%
- inhibition at 10 µM (SK-MEL-2): 2.71%
- inhibition at 10 µM (CCRF-CEM): 3.32%
- inhibition at 10 µM (OVCAR-8): -0.33%
- inhibition at 10 µM (HCT-15): -4.78%
- inhibition at 10 µM (HT-29): -4.42%
- inhibition at 10 µM (SK-MEL-5): -14.8%
- inhibition at 10 µM (A549/ATCC): -2.65%
- inhibition at 10 µM (COLO 205): -16.7%
- inhibition at 10 µM (SN12C): 3.7%
- inhibition at 10 µM (ACHN): 14.3%
- inhibition at 10 µM (HOP-62): 10.2%
- inhibition at 10 µM (UACC-257): -12.7%
- inhibition at 10 µM (NCI-H522): 9.54%
- inhibition at 10 µM (SF-295): -9.62%
- inhibition at 10 µM (NCI-H226): 15.7%
- inhibition at 10 µM (TK-10): -53.1%
- inhibition at 10 µM (SW-620): 4.11%
- inhibition at 10 µM (MDA-MB-435): -6.93%
- inhibition at 10 µM (K-562): 23.1%

From article PMC8330742, “New benzothieno[2,3-c]pyridines as non-steroidal CYP17 inhibitors: design, synthesis, anticancer screening, apoptosis induction, and in silico ADME profile studies” (Journal of Enzyme Inhibition and Medicinal Chemistry, 2021)
